Test results: ChEMBL document CHEMBL3507680, “University of Dundee, Gates Library screen for HepG2 cell viability”

Assay: Human HepG2 cell viability assay in 384 well format
Assay type: toxicity, cell-based
Set-up: dose 125 nL, time 70.5 hour; concentration not given beside the values
Conditions: HepG2 cells, read-out: Inhibition

Row | SMILES | cytotoxicity at 70.5 h
1 | CC(C)N(C)C(=O)C1=NOC2(CCN(C(=O)NCc3cccnc3)C2)C1 (stereo not drawn) | -9.91%
2 | NCCC(=O)N1CCC2(CC1)CN(C(=O)c1ccc(Cl)cc1)CCO2 | -12.1%
3 | Cc1nc(CN2CCCC(c3nc(C)n4c(C)c(C)sc34)C2)co1 (stereo not drawn) | 21%
4 | CC1(C(=O)N2CCN(c3cnccn3)CC2)CNCCO1 (stereo not drawn) | 28.1%
5 | CCOCc1cccc(NCc2c[nH]nc2-c2cccnc2)c1 | -2.34%
6 | O=c1[nH]c(CCN2CCCC2Cn2cccn2)nc2ccccc12 (stereo not drawn) | -9.61%
7 | COCC(=O)N1CC[C@@H]2O[C@H](COCc3ccncc3)CC[C@@H]21 | -15.9%
8 | CC(C)(O)CCc1cccc(C(=O)N2CCC3(CCO3)CC2)c1 | -1.91%
9 | O=C(c1ccc(=O)[nH]n1)N1CCCC1C1CCCC1 (stereo not drawn) | -0.243%
10 | Cc1cc(C)nc(N2CC=C[C@@H]2C(=O)NCc2ccc3c(c2)OCO3)n1 | -9.16%
11 | COC(=O)c1cccc(S(=O)(=O)N2CSCC2C(=O)N(C)C2CC2)c1 (stereo not drawn) | 12.1%
12 | Cc1ncsc1CN1Cc2cnn(C)c2C(COCC2CC2)C1 (stereo not drawn) | -1.88%
13 | CC(C)N(Cc1nc(-c2cccs2)no1)CC1CCC(=O)N1 (stereo not drawn) | -11.1%
14 | CC1COc2ccccc2N1C(=O)c1ccc(=O)n(C)c1 (stereo not drawn) | 22.1%
15 | COc1ccc(CN2CCCC(n3cccn3)C2)c(Cl)c1OC (stereo not drawn) | -9%
16 | N#Cc1cccnc1OC1CCN(S(=O)(=O)c2ccc(F)c(Cl)c2)CC1 | -14.2%
17 | CCN1CCCC(c2c(-c3ccccc3)ncn2Cc2csc(N)n2)C1 (stereo not drawn) | -0.765%
18 | COCC(c1cccc(C(F)(F)F)c1)N(C)C(=O)c1ccncc1 (stereo not drawn) | 30.8%
19 | COCCCNC(=O)CN(C)C(=O)c1ccc(OC)cc1O | -5.57%
20 | COc1ccc(N(C)C(=O)c2ccc(Cl)c(S(C)(=O)=O)c2)cn1 | -2.77%
21 | O=C(Cn1cc(C2CC2)nn1)N(Cc1ccco1)Cc1cccs1 | -2.55%
22 | O=C(NC1CCCC1)c1ccc(C2CCCNC2)nc1 (stereo not drawn) | 9.52%
23 | COc1ccccc1CN1CCC(c2nccc(C)n2)C1 (stereo not drawn) | 27.1%

Row | SMILES | cytotoxicity at 70.5 h
24 | CCc1ccc(-c2c(C)c(-c3cnn(C)c3)nc(N)c2C#N)o1 | -6.72%
25 | Cc1cc(CN2C[C@@H](C)[C@@]3(CCN(CC(=O)N(C)C)C3=O)C2)oc1C | -4.41%
26 | CN(C)Cc1ccnc(C2CN(Cc3c(F)cccc3F)CCO2)n1 (stereo not drawn) | -6.34%
27 | Cc1ccccc1-c1cncc(C2CCN(S(=O)(=O)N(C)C)CC2)n1 | -2.74%
28 | Cc1cc(C(=O)CN(Cc2cccnc2)CC2CCCO2)c(C)[nH]1 (stereo not drawn) | -15.9%
29 | COc1ccc(CNC(=O)NCCc2csc(C)n2)cn1 | 10.9%
30 | COCCNC(=O)[C@H]1CO[C@H]2CCN(Cc3cccs3)C[C@H]2C1 | -1.82%
31 | Cc1nc(CN2CCN(c3ccc(Cl)cn3)CC2)no1 | -6.61%
32 | N#CC1(C(=O)N2CCN(Cc3ccon3)CC2)CCC1 | -20%
33 | CCC(C)NC(=O)c1ccccc1-n1cnnn1 (stereo not drawn) | -11.4%
34 | O=S(=O)(c1ccc(Cl)s1)N1CCCC(c2ncc[nH]2)C1 (stereo not drawn) | -1.59%
35 | C/C(=C/c1ccccc1)CNCc1cccc(C(N)=O)c1 | -10.9%
36 | Cc1ccc(C2CSCCN2C(=O)NCc2cccnc2)cc1 (stereo not drawn) | -10.1%
37 | Cc1cc(CNc2cccc(C(=O)N(C)c3ccccc3)c2)no1 | -0.804%
38 | CCNC(=O)NC(=O)CN1CCC(c2c[nH]c3ccc(OC)cc23)CC1 | 24.1%
39 | Cc1cc(=O)n(CC(=O)Nc2ccc(C(N)=O)cc2)nc1C | -4.34%
40 | CCc1c(C(=O)N2CCCC(N(C)C)C2)cnn1C(C)(C)C (stereo not drawn) | -4.41%
41 | Cc1ccc(CN(CC(=O)N2CCOC(C)C2)C2CC2)cc1 (stereo not drawn) | -6.74%
42 | CC(C)=CCN1C[C@@H]2CN(C(=O)c3cnccc3C)C[C@]2(C(=O)O)C1 | -7.13%
43 | CN1CCC(N(CCc2ccccc2)C(=O)c2ccoc2)CC1 | -7.47%
44 | Cc1ccc(CNc2ccc(C(=O)N3CCNC(=O)C3)cn2)cc1 | 4.12%
45 | N#Cc1ccc(OC2CCN(C(=O)c3cncc(Br)c3)CC2)nc1 | -9.99%
46 | Cc1ccccc1C(=O)N1C[C@@H]2COC[C@]2(COCc2cccnc2)C1 | 2.96%

Row | SMILES | cytotoxicity at 70.5 h
47 | CN(CC(=O)N1CCCC1c1ccccn1)Cc1ccccc1 (stereo not drawn) | -6.16%
48 | CCN(C(C)=O)c1nc(CN2CCCCC2Cn2cncn2)cs1 (stereo not drawn) | -3.03%
49 | OCCCN1CCCC1c1nc(Cc2ccc(F)cc2)no1 (stereo not drawn) | 8.04%
50 | Cc1ccc(C(=O)Nc2cn[nH]c2)cc1 | -6.42%
51 | Cc1cccc(OC2CCN(C(=O)Cn3ccc4ccccc43)CC2)n1 | -6.3%
52 | CNC(=O)c1cccc(CCNC(=O)N2CCc3ccccc3C2)c1 | -1.68%
53 | Cc1ccncc1C(=O)N1CCCC(C(=O)CCc2ccccc2)C1 (stereo not drawn) | -7.97%
54 | Cn1cc(CN2C[C@@H]3COC[C@]3(COCC3CC3)C2)cn1 | -5.3%
55 | COc1ccc(OC)c(C2CCN(C(=O)C3CCS(=O)(=O)CC3)C2)c1 (stereo not drawn) | -7.16%
56 | O=C(N1CCN(CCO)CC1)C1(O)Cc2ccccc2C1 | -4.44%
57 | O=C(c1ccccc1)N1C[C@H]2CCC[C@@]2(COCc2ccncc2)C1 | 0.753%
58 | CN1CCN(C(=O)c2cn(-c3ccc(C(F)(F)F)cn3)nn2)CC1 | -6.96%
59 | N#CCCN(CC1CCOC1)S(=O)(=O)c1c(F)cccc1Cl (stereo not drawn) | -6.61%
60 | CC(C)=CCC/C(C)=C/CC(C)(C)CNCc1ccco1 | -1%
61 | CS(=O)(=O)N1Cc2nccn2CC(CN2CCCC2)C1 (stereo not drawn) | -3.59%
62 | COCC(c1ccccn1)N(C)C(=O)c1cc(-c2cccn2C)n[nH]1 (stereo not drawn) | -10.6%
63 | CCc1nnc2n1CCN(C(=O)c1cc3ccc(C)cc3[nH]1)C2 | -12.2%
64 | CNc1[nH]nc(N)c1NC(=O)c1ccccc1 | -17.7%
65 | CC(C)c1nc(CCN(C)c2nccc(N3CCCC(O)C3)n2)no1 (stereo not drawn) | -8.03%
66 | CN(C)c1ncccc1N(C)C(=O)Cn1cc(-c2ccccc2)nn1 | -3.41%
67 | CCCc1noc(CCC(=O)N2CCCC2c2cccc(OC)c2)n1 (stereo not drawn) | -8.65%
68 | Cc1nc(-c2ccsc2)ccc1C(=O)NCCC(=O)N1CCCC1 | -3.29%
69 | Cc1sc2nc(CCN)nc(N3CC(N4CCCCC4)C3)c2c1C | 26%

Row | SMILES | cytotoxicity at 70.5 h
70 | CCC(C)NC(=O)c1nnn(-c2ccc(Br)cc2)n1 (stereo not drawn) | 5.21%
71 | CNC(=O)CCNC(=O)c1cc(C)n(-c2cccc(OC)c2)c1C | -8.45%
72 | CC(NC(=O)CCc1nc(C(C)(C)C)no1)c1nnc2n1CCC2 (stereo not drawn) | -7.28%
73 | c1cnc(N2CC[C@@H](OCC3CC3)[C@@H]2Cc2cccnc2)nc1 | -4.73%
74 | COCC[C@]1(O)CCN(C(=O)C2CCN(C3CCCC3)CC2)C[C@H]1C | -5.71%
75 | CCn1cc(NC(=O)NCC(c2ccc(OC)cc2)N(C)C)cn1 (stereo not drawn) | -5.2%
76 | CC(C)(C)S(=O)(=O)CCNC(=O)NCCCc1cccc(F)c1 | 29%
77 | COCCN1CCC2(CC1)CC(N1CCOCC1)c1cc(C)ccc12 (stereo not drawn) | 4.82%
78 | COc1cccc2c1N(CC(=O)Nc1ccc(Cl)cn1)CCC2 | 0.717%
79 | Cc1cc(C(=O)Nc2ccc(N3CCCC3)cn2)ccc1-n1cncn1 | -1.17%
80 | O=C(O)c1cccc(CC2CCN(c3ncccn3)CC2)c1 | 3.25%
81 | COc1ccc(CNC(=O)c2ccc(Cl)cc2F)cc1C(=O)O | -4.39%
82 | COc1cc(OC)cc(C2CCN(CC(=O)NCC(F)(F)F)C2)c1 (stereo not drawn) | -3.94%
83 | Cc1cc(C)c(CNC(=O)N2CCCC2c2ccc(F)cc2)c(=O)[nH]1 (stereo not drawn) | -6.72%
84 | COc1nccnc1-c1cc(NC2CCCC2)nc2[nH]ccc12 | -16.1%
85 | CN(C)c1ccc(C(=O)N2CCCN(Cc3cscn3)CC2)nn1 | 27.8%
86 | CC(NC(=O)NCCn1ccnc1)c1ccc2c(c1)OCCCO2 (stereo not drawn) | -13.2%
87 | CN(C)C1(CNC(=O)Cc2ccc(F)cc2)CCOCC1 | -5.15%
88 | Cc1cnccc1N1CCCN(C(=O)CCCS(N)(=O)=O)CC1 | 3.54%
89 | CC1CN(C)CCN1C(=O)c1cccn1Cc1cccs1 (stereo not drawn) | -8.42%
90 | CCn1cc(CN2CCCN(C(=O)CCc3nccs3)CC2)cn1 | -12.4%
91 | CCN(Cc1noc(CC(C)C)n1)Cc1ccccc1Cl | 1.69%
92 | CN1CC(=O)N(c2cccc(F)c2)CC12CCN(Cc1ccncc1)C2 (stereo not drawn) | 9.43%

Row | SMILES | cytotoxicity at 70.5 h
93 | CC(OCC1CC1)C(=O)Nc1nccn1Cc1ccccc1 (stereo not drawn) | -14.6%
94 | CCOC(=O)c1coc(N2CCN(Cc3cc(C)cc(C)c3)C(=O)C2)n1 | -5.18%
95 | Cc1cccc(C2(NC(=O)CCN3C(=O)CCC3=O)CCCC2)c1 | -6.61%
96 | Cc1cnn(CC2CCCN2C(=O)c2ccc(OCC3CC3)nc2)c1 (stereo not drawn) | -6.47%
97 | COC(=O)c1ccc2ccn(CC3CCCCO3)c(=O)c2c1 (stereo not drawn) | -4.76%
98 | CS(=O)(=O)c1snnc1C1CCCN(Cc2ccncc2)C1 (stereo not drawn) | -11.9%
99 | Oc1nc(C2CCN(Cc3ccccn3)CC2)cc2ccccc12 | 32.3%
100 | COC1CCCOC12CCN(C(=O)NCc1ccco1)CC2 (stereo not drawn) | -1.17%
101 | Cc1cc(=O)n(CCNC(=O)c2ccccc2Cl)cn1 | 4.36%
102 | CCCS(=O)(=O)N1CCc2nc(N3CCOCC3)nc(N(C)C)c2C1 | 26.5%
103 | COc1ccc(Nc2nc3c(C)nn(C)c3c(=O)n2C)cc1 | 29.7%
104 | Cn1ccnc1CN1CCC2(CC1)CN(CC1CC1)C(=O)CO2 | 12.3%
105 | CC(C)NC(=O)c1cc2c(c3ccccc3n2C)n1C(=O)N(C)C | -9.14%
106 | CN(C)CCOc1ccc(N(C)S(=O)(=O)c2cnn(C)c2)cc1 | -1.43%
107 | O=C(c1cscn1)N1CCCC2(CCN2Cc2cccc(F)c2)C1 (stereo not drawn) | -0.0272%
108 | O=c1c2ccc(C(F)(F)F)cc2ncn1CCCN1CCCCC1CO (stereo not drawn) | 14.6%
109 | CC(Cn1ccnc1)NC(=O)C1(c2cccc(Cl)c2)CC1 (stereo not drawn) | -1.52%
110 | CSCC(=O)N1C[C@H](c2ccc(C)o2)[C@@H](N)C1 | -3.37%
111 | O=C(c1ccnnc1)N1CCc2onc(CN3CCCC3)c2C1 | -3.95%
112 | COc1cccc(CN2CCC(O)(c3ccc(C)cn3)CC2)c1OC | 4.46%
113 | CC(Cc1ccco1)NS(=O)(=O)N1CCCCC1 (stereo not drawn) | -6.18%
